Here are results for 22 compounds from patent publication US10202351B2, “Pyrazolyl derivatives as pest control agents” (BAYER ANIMAL HEALTH GMBH, priority 2015, dated 2019).

For one data set, the system named is Lucilia cuprina. Briefly: Lucilia cuprina test. Type of data set: in vivo. The settings on record: application rate 100 ppm, L1 larvae, kill after 2 days. The method, then:
(§1) Solvent: dimethyl sulfoxide
(§2) To produce a suitable preparation of active compound, 10 mg of active compound are mixed with 0.5 ml of dimethyl sulfoxide, and the concentrate is diluted with water to the desired concentration.
About 20 L1 larvae of the Australian sheep blowfly (Lucilia cuprina) are transferred into a test vessel containing minced horsemeat and the active compound formulation of the desired concentration.
After 2 days, the kill in % is determined. 100% means that all the larvae have been killed; 0% means that no larvae have been killed.

Another data set relates to Boophilus microplus. Briefly: Boophilus microplus injection test. It counts as in vivo. Particulars: application rate 20 μg/animal, after 7 days, laying of fertile eggs. The protocol:
Solvent: dimethyl sulfoxide […] The animals are transferred into dishes and kept in a climate-controlled room. Efficacy is assessed after 7 days by laying of fertile eggs. Eggs which are not visibly fertile are stored in a climate-controlled cabinet until the larvae hatch after about 42 days.

The subject of the next data set is Tetranychus urticae. Kind of data set: Tetranychus urticae spray test, OP-resistant. Type of data set: in vivo. Particulars: all stages on bean leaf discs, after 6 days. The protocol:
Solvent: 78.0 parts by weight of acetone • • 1.5 parts by weight of dimethylformamide Emulsifier: alkylaryl polyglycol ether […] To produce further test concentrations, the formulation is diluted with emulsifier-containing water. Discs of bean leaves (Phaseolus vulgaris) infested with all stages of the greenhouse red spider mite (Tetranychus urticae) are sprayed with an active ingredient formulation of the desired concentration.

The next data set concerns Musca domestica. Briefly: Musca domestica test. It counts as in vivo. The settings on record: application rate 100 ppm, adult houseflies, kill after 2 days. The protocol: as §1, §2
Vessels containing a sponge treated with sugar solution and the active ingredient formulation of the desired concentration are populated with 10 adult houseflies (Musca domestica)).
After 2 days, the kill in % is determined. 100% means that all of the flies have been killed; 0% means that none of the flies have been killed.

A further data set has as its system Spodoptera frugiperda. Briefly: Spodoptera frugiperda spray test. It counts as in vivo. The settings on record: application rate 100 g/ha, caterpillars on maize leaf discs, after 7 days. The protocol:
Solvent: 78.0 parts by weight of acetone • • 1.5 parts by weight of dimethylformamide Emulsifier: alkylaryl polyglycol ether […] To produce further test concentrations, the formulation is diluted with emulsifier-containing water. Leaf discs of maize (Zea mays) are sprayed with an active compound formulation of the desired concentration and, after drying, populated with caterpillars of the armyworm (Spodoptera frugiperda).

The test system of a further data set is Phaedon cochleariae. Briefly: Phaedon cochleariae spray test. It counts as in vivo. The settings on record: larvae on Chinese cabbage leaf discs, after 7 days. The protocol:
Solvent: 78.0 parts by weight of acetone • • 1.5 parts by weight of dimethylformamide Emulsifier: alkylaryl polyglycol ether […] To produce further test concentrations, the formulation is diluted with emulsifier-containing water. Discs of Chinese cabbage leaves (Brassica pekinensis) are sprayed with an active ingredient formulation of the desired concentration and, after drying, populated with larvae of the mustard beetle (Phaedon cochleariae).

The subject of data set [1] is Ctenocephalides felis. Kind of data set: Ctenocephalides felis oral test. Type of data set: in vivo. The settings on record: application rate 100 ppm in citrated cattle blood, kill after 2 days. The source says:
Solvent: dimethyl sulfoxide […] Dilution with citrated cattle blood gives the desired concentration. About 20 unfed adult cat fleas (Ctenocephalides felis) are placed into a chamber which is closed at the top and bottom with gauze. A metal cylinder whose bottom end is closed with parafilm is placed onto the chamber. The cylinder contains the blood/active ingredient formulation, which can be imbibed by the fleas through the parafilm membrane.

A short description of data set [2]: logP determination by HPLC on reversed-phase column (EEC Directive 79/831 Annex V.A8). Type of data set: physicochemical.
In data set [3] the test system is Ctenocephalides felis. Briefly: Ctenocephalides felis in vitro contact test with adult cat fleas. It counts as in vivo. Particulars: application rate 5 μg/cm^2 (500 g/ha), after 48 h, dead or moribund fleas. The method, then: After the solvent has evaporated off, the tubes are populated with 5-10 adult cat fleas (Ctenocephalides felis), sealed with a perforated plastic lid and incubated in a horizontal position at room temperature and ambient humidity. After 48 h, efficacy is determined. To this end, the tubes are stood upright and the fleas are knocked to the base of the tube. Fleas which remain motionless at the base or move in an uncoordinated manner are considered to be dead or moribund.

Where [4] appears, read: Table 1, HPLC C18, acetonitrile/water with formic acid.
The mark [5] stands for this setting: Table 3 intermediates, HPLC C18, acetonitrile/water with formic acid.

As to `Cc1cc(C(F)(C(F)(F)F)C(F)(F)F)cc(C(F)(F)F)c1-n1cc(-c2cc(NC(=O)c3ccnc(F)c3)ccc2F)cn1` [Example 2-1], the efficacy in the data set on Lucilia cuprina is 98%; in the data set on Boophilus microplus, 100%; with Tetranychus urticae (application rate 100 g/ha), 90%; in the data set on Musca domestica it was 100%; with Spodoptera frugiperda it was 100%; in the data set on Phaedon cochleariae (application rate 100 g/ha), 100%. The same compound registered an efficacy in the data set with Ctenocephalides felis [1] of 95%.
On to `Cc1cc(C(F)(C(F)(F)F)C(F)(F)F)cc(C(F)(F)F)c1-n1cc(-c2cc(NC(=O)c3ccncc3)ccc2F)cn1` [Example 2-2], for which the efficacy in the data set on Lucilia cuprina was determined as 98%; in the data set with Boophilus microplus, 100%; with Tetranychus urticae (application rate 100 g/ha) it was 90%; in the data set on Musca domestica, 90%; in the data set with Spodoptera frugiperda it was 100%; with Phaedon cochleariae (application rate 100 g/ha), 100%. In addition, in the data set with Ctenocephalides felis [1], the efficacy came out at 95%.
As for `O=C(Nc1cccc(-c2cnn(-c3c(Cl)cc(C(F)(F)F)cc3Cl)c2)c1)c1ccncc1` [Example 3], the lgP result in [2] (setting [4]) is on record as “lgP 3.2”. The efficacy in the data set with Boophilus microplus amounted to 100%; with Tetranychus urticae (application rate 500 g/ha), 90%; in the data set with Phaedon cochleariae (application rate 500 g/ha), 100%; with Ctenocephalides felis [1], 90%.
Consider `Cc1cc(C(F)(C(F)(F)F)C(F)(F)F)cc(C)c1-n1cc(-c2ccc(Cl)c(NC(=O)c3cccc(F)c3)c2)cn1` [Example 8], for which the lgP result in data set [2] (setting [4]) is “lgP 5.59”. The efficacy in the data set with Boophilus microplus is 100%.
As for `Cc1cc(C(F)(C(F)(F)F)C(F)(F)F)cc(C)c1-n1cc(-c2ccc(F)c(NC(=O)c3ccncc3)c2F)cn1` [Example 9], in [2] (setting [4]), the lgP result is recorded as “lgP 3.92”. The efficacy with Lucilia cuprina, in the data set on Boophilus microplus, with Tetranychus urticae (application rate 100 g/ha), in the data set with Musca domestica, with Spodoptera frugiperda and in the data set on Phaedon cochleariae (application rate 100 g/ha) was 100% throughout. Besides, the efficacy in the data set on Ctenocephalides felis [1] came to 100%.
For the compound `Cc1cc(C(F)(C(F)(F)F)C(F)(F)F)cc(C)c1-n1cc(-c2ccc(Cl)c(NC(=O)c3ccccc3F)c2)cn1` [Example 10], the lgP entry in data set [2] (setting [4]) is on record as “lgP 6.06”. Besides, in the data set with Boophilus microplus, the efficacy stood at 100%.
As for `Cc1cc(C(F)(C(F)(F)F)C(F)(F)F)cc(C)c1-n1cc(-c2cnc(Cl)c(NC(=O)C3(C#N)CC3)c2)cn1` [Example 13], the lgP result in [2] (setting [4]) was “lgP 4.69”. Also, the efficacy in the data set on Lucilia cuprina came out at 90%; in the data set with Boophilus microplus it was 100%; with Musca domestica, 80%; with Spodoptera frugiperda it was 83%; in the data set on Ctenocephalides felis [1] it was 100%.
In the case of `Cc1cc(C(F)(C(F)(F)F)C(F)(F)F)cc(C)c1-n1cc(-c2ccnc(NC(=O)c3ccc(F)cc3)c2)cn1` [Example 14], the lgP result in [2] (setting [4]) was “lgP 4.69”. This compound displayed an efficacy in the data set with Boophilus microplus of 80%.
Take `COc1cc(C(=O)Nc2cc(-c3cnn(-c4c(Cl)cc(C(F)(C(F)(F)F)C(F)(F)F)cc4Cl)c3)ccc2F)ccc1F` [Example 22]: the efficacy with Lucilia cuprina, in the data set with Boophilus microplus, in the data set on Tetranychus urticae (application rate 100 g/ha), with Musca domestica, with Spodoptera frugiperda and in the data set with Phaedon cochleariae (application rate 100 g/ha) was 100% in each case. The same compound returned an efficacy in the data set on Ctenocephalides felis [1] of 100%.
In the case of `Cc1cc(C(F)(C(F)(F)F)C(F)(F)F)cc(C(F)(F)F)c1-n1cc(-c2ccc(F)c(NC(=O)C3(C)CC3)c2)cn1` [Example 30], the efficacy in the data set with Lucilia cuprina, with Boophilus microplus, in the data set with Musca domestica, in the data set with Spodoptera frugiperda, with Ctenocephalides felis [3] and in the data set on Phaedon cochleariae (application rate 100 g/ha) was 100% throughout. In the data set with Ctenocephalides felis [1], this compound showed an efficacy of 100%.
On to `Cc1cc(C(F)(C(F)(F)F)C(F)(F)F)cc(C(F)(F)F)c1-n1cc(-c2ccc(F)c(NC(=O)c3ccc(F)nc3)c2)cn1` [Example 39], for which the efficacy with Lucilia cuprina, in the data set on Boophilus microplus, in the data set with Tetranychus urticae (application rate 100 g/ha), in the data set with Musca domestica, in the data set with Spodoptera frugiperda and with Phaedon cochleariae (application rate 100 g/ha) was 100% throughout. For the same compound, the efficacy in the data set with Ctenocephalides felis [1] is reported as 100%.
Consider `Cc1cc(C(F)(C(F)(F)F)C(F)(F)F)cc(C(F)(F)F)c1-n1cc(-c2ccc(F)c(NC(=O)c3ccc(F)nc3)c2F)cn1` [Example 40], for which the efficacy in the data set with Lucilia cuprina, in the data set with Boophilus microplus, in the data set on Tetranychus urticae (application rate 100 g/ha), in the data set with Musca domestica, in the data set on Spodoptera frugiperda and in the data set with Phaedon cochleariae (application rate 100 g/ha) was 100% throughout. Besides, the efficacy with Ctenocephalides felis [1] is reported as 100%.
For the compound `Cc1cc(C(F)(C(F)(F)F)C(F)(F)F)cc(C(F)(F)F)c1-n1cc(-c2ccc(F)c(NC(=O)C3CSC3)c2F)cn1` [Example 65], the efficacy is on record as 100% in the data set on Lucilia cuprina; 80% in the data set with Boophilus microplus; 100% with Tetranychus urticae (application rate 100 g/ha); 100% with Musca domestica; 100% in the data set on Spodoptera frugiperda; 100% with Phaedon cochleariae (application rate 100 g/ha). The efficacy in the data set on Ctenocephalides felis [1] stood at 100%.
Consider `Cc1cc(C(F)(C(F)(F)F)C(F)(F)F)cc(C(F)(F)F)c1-n1cc(-c2cccc(NC(=O)c3ccc(C#N)nc3)c2F)cn1` [Example 69], for which the efficacy in the data set with Lucilia cuprina, in the data set with Boophilus microplus, with Spodoptera frugiperda, in the data set with Ctenocephalides felis [3], with Phaedon cochleariae (application rate 100 g/ha) and in the data set on Ctenocephalides felis [1] was 100% in each case.
Take `Cc1cc(C(F)(C(F)(F)F)C(F)(F)F)cc(C(F)(F)F)c1-n1cc(-c2cccc(NC(=O)c3ccc(Cl)nc3)c2F)cn1` [Example 70]: the efficacy in the data set with Lucilia cuprina, in the data set with Boophilus microplus, in the data set with Musca domestica, in the data set with Spodoptera frugiperda, in the data set with Phaedon cochleariae (application rate 100 g/ha) and in the data set with Ctenocephalides felis [1] was 100% in each case.
Consider `O=[N+]([O-])c1cccc(-c2cnn(-c3c(Cl)cc(C(F)(F)F)cc3Cl)c2)c1` [II-1], for which the lgP result in data set [2] (setting [5]) is reported as “lgP 4.32”.
Turning to `Cc1cc(C(F)(C(F)(F)F)C(F)(F)F)cc(C)c1-n1cc(-c2ccc(Cl)c([N+](=O)[O-])c2)cn1` [II-7, 4-(4-chloro-3-nitrophenyl)-1-[2,6-dimethyl-4-[1,2,2,2-tetrafluoro-1-(trifluoromethyl)ethyl]phenyl]pyrazole], the lgP result is recorded as “lgP 5.39” in data set [2] (setting [5]) and 5.39 in data set [2] (synthesis example).
For the compound `Nc1cccc(-c2cnn(-c3c(Cl)cc(C(F)(F)F)cc3Cl)c2)c1` [III-1], the lgP result in data set [2] (setting [5]) is listed as “lgP 2.90”.
With `Cc1cc(C(F)(C(F)(F)F)C(F)(F)F)cc(C)c1-n1cc(-c2ccc(Cl)c(N)c2)cn1` [III-7, 2-chloro-5-[1-[2,6-dimethyl-4-[1,2,2,2-tetrafluoro-1-(trifluoromethyl)ethyl]phenyl]pyrazol-4-yl]aniline], the figures for the lgP result in data set [2] (setting [5]) and in data set [2] (synthesis example) were “lgP 4.93” and 4.93, respectively.
Turning to `Cc1cc(C(F)(C(F)(F)F)C(F)(F)F)cc(C)c1-n1cc(-c2ccc(F)c(N)c2)cn1` [III-8], the lgP result in data set [2] (setting [5]) is reported as “lgP 4.47”.
As to `Cc1cc(C(F)(C(F)(F)F)C(F)(F)F)cc(C)c1-n1cc(-c2ccc(F)c(N)c2F)cn1` [III-9], in [2] (setting [5]), the lgP entry is listed as “lgP 4.81”.
Take `Cc1cc(C(F)(C(F)(F)F)C(F)(F)F)cc(C)c1-n1cc(-c2cccc(N)c2F)cn1` [III-10]: the lgP entry in [2] (setting [5]) is reported as “lgP 4.61”.
